Where two headings read alike, the source gives them in different places.
How the values were obtained:
[1] = system: immortalized lung BEAS-2B normal cell lines; experiment: MTT cytotoxicity assay, normal lung BEAS-2B cells; assay type: cell-based; conditions: Homo sapiens, 72 h, read-out: BEAS-2B Cells IC50
Method: (§1) Adenocarcinomic human alveolar basal epithelial (A549) and human hepatoma (HepG2) cancer cell lines, immortalized normal human liver (LO2), human bronchial epithelial (BEAS-2B cells were purchased from [NT], Manassas, VA, USA). […] Invitrogen, Waltham, MA, USA). All cells were incubated at 37 °C in a 5% humidified CO2 incubator). All test compounds were dissolved in DMSO at a final concentration of 50 mM and stored at -20 °C before use. Cytotoxicity was assessed by the MTT (5 mg/mL) assay, as described previously. Briefly, 5 × 10^3 cells per well were seeded in 96-well plates before drug treatments. […] Cells without drug treatment were used as controls. Subsequently, 10 μL of 5 mg/mL MTT solution was added to each well and incubated at 37 °C for 4 h, followed by the addition of 100 μL solubilization buffer (12 mM HCl in a solution of 10% SDS) and overnight incubation. The absorbance, A570 nm, was then determined in each well on the next day. The percentage of cell viability was calculated using the expression: % viability = Atreated/Acontrol × 100, and was given as cytotoxicity (Table 2 and Table 3; […]

[2] = system: immortalized liver LO2 normal cell lines; experiment: MTT cytotoxicity assay, normal liver LO2 cells; assay type: cell-based; conditions: Homo sapiens, read-out: LO2 Cells IC50
Method: as §1

[3] = system: human HepG2 cancer cell lines; experiment: MTT cytotoxicity assay, liver cancer HepG2 cells; assay type: cell-based; conditions: for IC50: Homo sapiens, HepG2, 72 h, read-out: HepG2 Cells IC50; for S.I. Selectivity index liver (IC50 normal cells/IC50 cancer cells): LO2 IC50 / HepG2 IC50
Method: as §1

[4] = system: human lung A549 cancer cell lines; experiment: MTT cytotoxicity assay, lung cancer A549 cells; assay type: cell-based; conditions: for IC50: Homo sapiens, read-out: A549 Cells IC50; for S.I. Selectivity index lung (IC50 normal cells/IC50 cancer cells): BEAS-2B IC50 / A549 IC50
Method: as §1

[5] = MTT, 0.19–100 μM, normal lung cells
[6] = L02, MTT, 72 h, 0.19–100 μM, normal liver cells
[7] = MTT, 72 h, 0.19–100 μM, means of at least three independent experiments in duplicates
[8] = A549, MTT, 72 h, 0.19–100 μM, means of at least three independent experiments in duplicates

melting point [°C]	Structure (SMILES)	IC50 [1, 5] [µM]	IC50 [2, 6] [µM]	IC50 [3, 7] [µM]	IC50 [4, 8] [µM]	S.I. Selectivity index liver (IC50 normal cells/IC50 cancer cells) [3]	S.I. Selectivity index lung (IC50 normal cells/IC50 cancer cells) [4]	IC50 [1] [µM]	IC50 ([2]; L02, 72 h) [µM]	IC50 [3] [µM]	IC50 ([4]; A549, 72 h) [µM]
210 to 212	COc1ccc(OC)c(C2C([N+](=O)[O-])C(C(C)C)NC23C(=O)Nc2ccccc23)c1 (stereo not drawn) [Compound 4d, 3′-(2,5-dimethoxyphenyl)-5′-isopropyl-4′-nitrospiro[indoline-3,2′-pyrrolidin]-2-one]	> 100	> 100	> 100	> 100	–	–	–	–	–	–
108 to 110	COc1ccc(OC)c(C2C([N+](=O)[O-])C(C)NC23C(=O)Nc2ccc(Br)cc23)c1 (stereo not drawn) [Compound 4e, 5-bromo-3′-(2,5-dimethoxyphenyl)-5′-methyl-4′-nitrospiro[indoline-3,2′-pyrrolidin]-2-one]	> 100	81.3	> 100	85.6	<0.81	–	–	–	–	–
95 to 97	COc1ccc(C2C([N+](=O)[O-])C(CC(C)C)NC23C(=O)Nc2ccc(Br)cc23)cc1OCc1ccccc1 (stereo not drawn) [Compound 4f, 3′-(3-(benzyloxy)-4-methoxyphenyl)-5-bromo-5′-isobutyl-4′-nitrospiro[indoline-3,2′-pyrrolidin]-2-one]	> 100	> 100	82	41.1	–	–	–	–	–	–
155 to 157	COc1ccc(C2C([N+](=O)[O-])C(Cc3ccccc3)NC23C(=O)Nc2ccc(Br)cc23)cc1OCc1ccccc1 (stereo not drawn) [Compound 4g, 5′-benzyl-3′-(3-(benzyloxy)-4-methoxyphenyl)-5-bromo-4′-nitrospiro[indoline-3,2′-pyrrolidin]-2-one]	> 100	> 100	> 100	> 100	–	–	–	–	–	–
73 to 75	COc1ccc(C2C([N+](=O)[O-])C(CC(C)C)NC23C(=O)Nc2ccccc23)cc1OC (stereo not drawn) [Compound 4h, 3′-(3,4-dimethoxyphenyl)-5′-isobutyl-4′-nitrospiro[indoline-3,2′-pyrrolidin]-2-one]	> 100	> 100	> 100	> 100	–	–	–	–	–	–
165 to 167	COc1ccc(C2C([N+](=O)[O-])C(C)NC23C(=O)Nc2ccccc23)cc1OC (stereo not drawn) [Compound 4i, 3′-(3,4-dimethoxyphenyl)-5′-methyl-4′-nitrospiro[indoline-3,2′-pyrrolidin]-2-one]	> 100	> 100	> 100	> 100	–	–	–	–	–	–
155 to 157	COc1ccc(C2C([N+](=O)[O-])C(C)NC23C(=O)Nc2ccc(Br)cc23)cc1OC (stereo not drawn) [Compound 4j, 5-bromo-3′-(3,4-dimethoxyphenyl)-5′-methyl-4′-nitrospiro[indoline-3,2′-pyrrolidin]-2-one]	> 100	> 100	> 100	> 100	–	–	–	–	–	–
168 to 170	COc1cc(C2C([N+](=O)[O-])C(C)NC23C(=O)Nc2ccc(Br)cc23)ccc1OCc1ccccc1 (stereo not drawn) [Compound 4m, 3′-(4-(benzyloxy)-3-methoxyphenyl)-5-bromo-5′-methyl-4′-nitrospiro[indoline-3,2′-pyrrolidin]-2-one]	63.5	36.6	41.6	45.9	0.88	1.38	–	–	–	–

Second part, the compound before the results:

Structure (SMILES)	melting point [°C]	IC50 [1, 5] [µM]	IC50 [2, 6] [µM]	IC50 [3, 7] [µM]	IC50 [4, 8] [µM]	S.I. Selectivity index liver (IC50 normal cells/IC50 cancer cells) [3]	S.I. Selectivity index lung (IC50 normal cells/IC50 cancer cells) [4]	IC50 [1] [µM]	IC50 ([2]; L02, 72 h) [µM]	IC50 [3] [µM]	IC50 ([4]; A549, 72 h) [µM]
C[C@@H]1CC[C@H]2[C@@H](C)C(=O)O[C@@H]3O[C@@]4(C)CC[C@@H]1[C@]32OO4 [ART, artemisinin, reference compound]	–	100	> 100	> 100	100	–	–	–	–	–	–
C[C@H]1[C@H](OC(=O)CCC(=O)O)O[C@@H]2O[C@@]3(C)CC[C@H]4[C@H](C)CC[C@@H]1[C@@]24OO3 [AS, artesunic acid, reference compound]	–	7.53	8.25	4.09 ± 0.4	9.85	2.01	0.76	–	–	–	–
CCN(CC)CCCC(C)Nc1ccnc2cc(Cl)ccc12 (stereo not drawn) [CQ, chloroquine, reference compound]	–	–	–	–	–	0.30	–	3.07	15	49.02 ± 0.4	100
COc1ccc(OC)c(C2C([N+](=O)[O-])C(CC(C)C)NC23C(=O)Nc2ccccc23)c1 (stereo not drawn) [Compound 4a, 3′-(2,5-dimethoxyphenyl)-5′-isobutyl-4′-nitrospiro[indoline-3,2′-pyrrolidin]-2-one]	182 to 184	> 100	> 100	> 100	> 100	–	–	–	–	–	–
COc1ccc(OC)c(C2C([N+](=O)[O-])C(C)NC23C(=O)Nc2ccccc23)c1 (stereo not drawn) [Compound 4b, 3′-(2,5-dimethoxyphenyl)-5′-methyl-4′-nitrospiro[indoline-3,2′-pyrrolidin]-2-one]	150 to 152	> 100	> 100	> 100	> 100	–	–	–	–	–	–
COc1ccc(OC)c(C2C([N+](=O)[O-])C(CC(C)C)NC23C(=O)Nc2ccc(Br)cc23)c1 (stereo not drawn) [Compound 4c, 5-bromo-3′-(2,5-dimethoxyphenyl)-5′-isobutyl-4′-nitrospiro[indoline-3,2′-pyrrolidin]-2-one]	142 to 144	33.5	37.6	60.3	35	0.62	0.96	–	–	–	–
COc1cc(C2C([N+](=O)[O-])C(CC(C)C)NC23C(=O)Nc2ccccc23)ccc1OCc1ccccc1 (stereo not drawn) [Compound 4k, 3′-(4-(benzyloxy)-3-methoxyphenyl)-5′-isobutyl-4′-nitrospiro[indoline-3,2′-pyrrolidin]-2-one]	68 to 70	> 100	33.3	67.8	> 100	0.49	–	–	–	–	–
COc1cc(C2C([N+](=O)[O-])C(C)NC23C(=O)Nc2ccccc23)ccc1OCc1ccccc1 (stereo not drawn) [Compound 4l, 3′-(4-(benzyloxy)-3-methoxyphenyl)-5′-methyl-4′-nitrospiro[indoline-3,2′-pyrrolidin]-2-one]	168 to 170	> 100	> 100	> 100	> 100	–	–	–	–	–	–
COc1cc(C2C([N+](=O)[O-])C3CCCN3C23C(=O)Nc2ccccc23)ccc1OCc1ccccc1 (stereo not drawn) [Compound 4n, 2′-(4-(benzyloxy)-3-methoxyphenyl)-1′-nitro-1′,2′,5′,6′,7′,7a′-hexahydrospiro[indoline-3,3′-pyrrolizin]-2-one]	66 to 68	> 100	> 100	> 100	> 100	–	–	–	–	–	–
COc1cc(C2C([N+](=O)[O-])C3CCCN3C23C(=O)Nc2ccc(Br)cc23)ccc1OCc1ccccc1 (stereo not drawn) [Compound 4o, 2′-(4-(benzyloxy)-3-methoxyphenyl)-5-bromo-1′-nitro-1′,2′,5′,6′,7′,7a′-hexahydrospiro[indoline-3,3′-pyrrolizin]-2-one]	95 to 97	> 100	> 100	> 100	> 100	–	–	–	–	–	–
